The values that follow come from ChEMBL document CHEMBL2203073, “Synthesis and biological evaluation of 4,4-dimethyl lithocholic acid derivatives as novel inhibitors of protein tyrosine phosphatase 1B” (Bioorg Med Chem Lett, 2012).

As usually defined, the IC50 is the concentration at which inhibition is half-maximal. A lower IC50 goes with higher potency. The inhibition is the drop in the measured response relative to a control, in per cent. Higher therefore signals a strong effect. Broadly, the Ki is the dissociation constant of the complex between target and ligand, obtained from inhibition or displacement. Higher therefore signals a looser hold on the target.

SMILES strings stand for the structures.

A short description of experiment [1]: Selectivity index, ratio of IC50 for TCPTP to PTP1B.
Experiment [2] addresses T1, Tyrosine-protein phosphatase non-receptor type 2 (Homo sapiens, UniProt P17706).
T1 sequence (P17706 whole entry): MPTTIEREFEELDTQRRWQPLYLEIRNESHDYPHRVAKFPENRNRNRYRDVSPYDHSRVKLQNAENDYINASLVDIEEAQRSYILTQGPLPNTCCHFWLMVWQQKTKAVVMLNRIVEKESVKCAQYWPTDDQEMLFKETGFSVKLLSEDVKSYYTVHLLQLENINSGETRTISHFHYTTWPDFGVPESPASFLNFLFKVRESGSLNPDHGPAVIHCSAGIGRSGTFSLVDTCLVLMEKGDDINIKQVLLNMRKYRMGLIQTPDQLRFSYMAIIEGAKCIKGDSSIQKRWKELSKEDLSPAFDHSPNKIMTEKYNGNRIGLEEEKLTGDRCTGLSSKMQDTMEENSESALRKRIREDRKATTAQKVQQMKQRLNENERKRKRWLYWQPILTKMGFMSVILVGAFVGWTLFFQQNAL
The experiment is described as follows: Inhibition of TCPTP by para-nitrophenyl phosphate release assay.

Experiment [3] concerns the target T2, Tyrosine-protein phosphatase non-receptor type 1 (Homo sapiens, UniProt P18031).
T2 sequence (P18031 whole entry): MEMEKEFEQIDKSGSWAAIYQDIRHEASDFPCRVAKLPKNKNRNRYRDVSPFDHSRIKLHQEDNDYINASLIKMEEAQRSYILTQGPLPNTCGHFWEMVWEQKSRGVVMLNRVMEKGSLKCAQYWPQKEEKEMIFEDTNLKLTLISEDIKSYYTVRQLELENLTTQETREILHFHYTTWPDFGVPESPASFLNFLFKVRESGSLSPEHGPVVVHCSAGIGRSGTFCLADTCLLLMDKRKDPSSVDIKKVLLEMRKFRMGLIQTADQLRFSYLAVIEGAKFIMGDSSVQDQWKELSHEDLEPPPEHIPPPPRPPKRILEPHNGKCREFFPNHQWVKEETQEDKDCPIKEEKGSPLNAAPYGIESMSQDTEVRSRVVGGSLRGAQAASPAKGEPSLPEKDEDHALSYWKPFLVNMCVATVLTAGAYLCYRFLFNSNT
Description: Inhibition of PTP1B by para-nitrophenyl phosphate release assay.

The target of experiment [4] is T3, Tyrosine-protein phosphatase non-receptor type 11 (Homo sapiens) (UniProt Q06124).
T3 sequence (whole entry): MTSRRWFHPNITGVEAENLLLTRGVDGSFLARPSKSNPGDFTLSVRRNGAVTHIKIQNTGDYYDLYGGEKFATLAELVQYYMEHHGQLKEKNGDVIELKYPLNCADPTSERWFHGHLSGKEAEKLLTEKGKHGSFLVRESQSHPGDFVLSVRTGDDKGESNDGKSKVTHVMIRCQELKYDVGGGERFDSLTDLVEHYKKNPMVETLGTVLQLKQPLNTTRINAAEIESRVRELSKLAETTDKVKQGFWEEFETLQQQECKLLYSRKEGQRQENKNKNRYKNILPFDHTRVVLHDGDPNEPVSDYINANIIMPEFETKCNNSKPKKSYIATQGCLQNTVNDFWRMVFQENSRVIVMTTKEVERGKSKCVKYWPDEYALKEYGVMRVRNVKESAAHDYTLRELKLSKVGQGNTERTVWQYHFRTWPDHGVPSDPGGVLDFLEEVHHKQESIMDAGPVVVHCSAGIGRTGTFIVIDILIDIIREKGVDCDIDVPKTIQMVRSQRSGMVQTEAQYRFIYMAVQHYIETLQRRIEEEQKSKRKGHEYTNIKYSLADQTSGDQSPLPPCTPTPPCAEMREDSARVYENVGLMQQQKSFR
The experiment is described as follows: Inhibition of SHP2 at 40 uM.

The target in experiment [5] is Receptor-type tyrosine-protein phosphatase F (Homo sapiens) (UniProt P10586). Description: Inhibition of LAR at 40 uM.
The target in experiment [6] is T2, Tyrosine-protein phosphatase non-receptor type 1. Description: Competitive inhibition of PTP1B by para-nitrophenyl phosphate release assay.
Experiment [7] deals with Tyrosine-protein phosphatase non-receptor type 6 (Homo sapiens) (UniProt P29350). The experiment is described as follows: Inhibition of SHP1 at 40 uM.
Tyrosine-protein phosphatase non-receptor type 6 (Homo sapiens), sequence (P29350 whole entry): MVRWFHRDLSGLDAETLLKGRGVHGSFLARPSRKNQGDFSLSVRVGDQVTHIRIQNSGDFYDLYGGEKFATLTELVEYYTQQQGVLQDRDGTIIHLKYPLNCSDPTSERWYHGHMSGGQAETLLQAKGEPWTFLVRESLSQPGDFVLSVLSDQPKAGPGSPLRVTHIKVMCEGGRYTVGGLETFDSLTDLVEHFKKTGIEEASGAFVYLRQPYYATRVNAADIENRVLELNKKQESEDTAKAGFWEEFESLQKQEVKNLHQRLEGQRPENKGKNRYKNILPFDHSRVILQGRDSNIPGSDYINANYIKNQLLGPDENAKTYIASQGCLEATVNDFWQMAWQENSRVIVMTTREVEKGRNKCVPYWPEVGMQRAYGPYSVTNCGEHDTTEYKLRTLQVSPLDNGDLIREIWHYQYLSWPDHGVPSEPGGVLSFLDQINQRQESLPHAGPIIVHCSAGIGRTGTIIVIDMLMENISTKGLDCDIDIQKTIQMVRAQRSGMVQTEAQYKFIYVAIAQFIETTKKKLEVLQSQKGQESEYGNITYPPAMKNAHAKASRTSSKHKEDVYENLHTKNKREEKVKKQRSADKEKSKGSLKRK

Receptor-type tyrosine-protein phosphatase F (Homo sapiens), sequence (P10586 whole entry): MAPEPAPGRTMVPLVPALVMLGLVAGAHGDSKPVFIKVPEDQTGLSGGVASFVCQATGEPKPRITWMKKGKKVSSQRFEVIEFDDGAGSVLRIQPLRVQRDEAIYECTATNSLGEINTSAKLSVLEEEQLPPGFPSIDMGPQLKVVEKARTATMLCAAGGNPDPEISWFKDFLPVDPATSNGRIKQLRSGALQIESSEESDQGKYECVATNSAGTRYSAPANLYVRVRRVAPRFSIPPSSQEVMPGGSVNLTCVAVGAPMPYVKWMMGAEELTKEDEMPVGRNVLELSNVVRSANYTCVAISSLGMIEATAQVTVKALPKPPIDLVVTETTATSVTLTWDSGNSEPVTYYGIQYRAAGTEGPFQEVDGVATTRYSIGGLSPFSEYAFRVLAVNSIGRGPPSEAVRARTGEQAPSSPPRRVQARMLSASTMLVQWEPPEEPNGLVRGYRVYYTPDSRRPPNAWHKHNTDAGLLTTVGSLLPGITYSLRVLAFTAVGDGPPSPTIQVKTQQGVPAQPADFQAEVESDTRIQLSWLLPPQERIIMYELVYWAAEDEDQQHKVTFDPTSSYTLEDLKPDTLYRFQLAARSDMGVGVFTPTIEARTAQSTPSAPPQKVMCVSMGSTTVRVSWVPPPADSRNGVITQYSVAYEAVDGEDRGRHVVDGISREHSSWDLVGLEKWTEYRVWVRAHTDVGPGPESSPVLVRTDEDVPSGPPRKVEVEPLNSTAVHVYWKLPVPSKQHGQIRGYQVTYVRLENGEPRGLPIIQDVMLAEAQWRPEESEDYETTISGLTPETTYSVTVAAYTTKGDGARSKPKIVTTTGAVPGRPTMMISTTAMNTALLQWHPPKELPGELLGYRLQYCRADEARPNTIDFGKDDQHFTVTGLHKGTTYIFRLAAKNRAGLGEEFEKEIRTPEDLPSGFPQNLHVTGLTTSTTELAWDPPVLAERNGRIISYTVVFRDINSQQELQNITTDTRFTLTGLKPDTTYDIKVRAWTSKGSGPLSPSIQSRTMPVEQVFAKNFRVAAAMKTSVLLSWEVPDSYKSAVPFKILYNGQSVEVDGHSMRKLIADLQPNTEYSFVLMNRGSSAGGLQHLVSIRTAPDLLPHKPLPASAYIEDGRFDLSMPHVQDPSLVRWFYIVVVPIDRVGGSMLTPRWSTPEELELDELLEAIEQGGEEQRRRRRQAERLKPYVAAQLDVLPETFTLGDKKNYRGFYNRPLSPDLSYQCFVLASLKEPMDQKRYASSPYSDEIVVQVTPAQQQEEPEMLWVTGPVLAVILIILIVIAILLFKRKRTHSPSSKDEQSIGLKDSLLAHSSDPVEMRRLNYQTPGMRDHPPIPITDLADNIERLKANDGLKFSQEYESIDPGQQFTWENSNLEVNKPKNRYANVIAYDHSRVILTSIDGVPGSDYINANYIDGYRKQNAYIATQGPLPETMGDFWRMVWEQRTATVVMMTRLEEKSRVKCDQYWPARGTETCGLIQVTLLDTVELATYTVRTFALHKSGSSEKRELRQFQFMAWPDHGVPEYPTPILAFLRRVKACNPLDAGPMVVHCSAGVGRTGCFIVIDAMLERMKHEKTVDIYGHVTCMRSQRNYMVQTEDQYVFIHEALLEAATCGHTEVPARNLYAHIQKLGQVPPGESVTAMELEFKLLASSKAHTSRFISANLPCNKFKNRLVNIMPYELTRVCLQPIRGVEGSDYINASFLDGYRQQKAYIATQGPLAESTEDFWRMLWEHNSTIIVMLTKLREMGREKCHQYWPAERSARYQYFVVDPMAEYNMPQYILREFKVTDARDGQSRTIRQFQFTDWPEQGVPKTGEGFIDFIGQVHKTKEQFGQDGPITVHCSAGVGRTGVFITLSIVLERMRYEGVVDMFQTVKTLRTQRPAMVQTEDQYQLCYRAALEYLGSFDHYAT

Regarding `C[C@H](CCC(=O)O)[C@H]1CC[C@H]2[C@@H]3CC=C4C(C)(C)c5[nH]ncc5C[C@]4(C)[C@H]3CC[C@]12C`, the Ratio IC50 in experiment [1] amounted to 4.7. Further, the IC50 in experiment [2] worked out at 19.2 µM; in experiment [3] it was 4.11 µM.
For `C[C@H](CCC(=O)O)[C@H]1CC[C@H]2[C@@H]3CC=C4C(C)(C)c5[nH]nc(C(=O)O)c5C[C@]4(C)[C@H]3CC[C@]12C`, the Ratio IC50 in experiment [1] came out at 0.9. Besides, the results for the IC50 in experiment [2] and in experiment [3] were 9 µM and 9.27 µM, respectively.
`COC(=O)CC[C@@H](C)[C@H]1CC[C@H]2[C@@H]3CC=C4C(C)(C)c5nccnc5C[C@]4(C)[C@H]3CC[C@]12C`: the Ratio IC50 in experiment [1] was greater than 1.4. The results for the IC50 in experiment [2] and in experiment [3] were greater than 40 µM and 28.2 µM, respectively.
The matching figures for `C[C@H](CCC(=O)O)[C@H]1CC[C@H]2[C@@H]3CC=C4C(C)(C)c5nccnc5C[C@]4(C)[C@H]3CC[C@]12C`: 2.8, 23.8 µM and 8.62 µM.
Take `C[C@H](CCC(=O)O)[C@H]1CC[C@H]2[C@@H]3CC=C4C(C)(C)c5c(cnn5-c5ccccc5)C[C@]4(C)[C@H]3CC[C@]12C`: the Ratio IC50 in experiment [1] was 14.1. Moreover, the inhibition worked out at 9.36% in experiment [4], 26.9% in experiment [5] and 0.97% in experiment [7]. Also, the IC50 in experiment [2] was found to be 22.8 µM; in experiment [3] it was 1.62 µM. The same molecule came in with a Ki in experiment [6] of 0.84 µM.
With `C[C@H](CCC(=O)O)[C@H]1CC[C@H]2[C@@H]3CC=C4C(C)(C)c5nc(N)ncc5C[C@]4(C)[C@H]3CC[C@]12C`, in experiment [1], the Ratio IC50 was determined as 5. The IC50 in experiment [2] came to 17.1 µM; in experiment [3], 3.61 µM.
With `CCOC(=O)CC[C@@H](C)[C@H]1CC[C@H]2[C@@H]3CC=C4C(C)(C)c5[nH]ncc5C[C@]4(C)[C@H]3CC[C@]12C`, the Ratio IC50 in experiment [1] was greater than 2.1. Besides, the values for the IC50 in experiment [2] and in experiment [3] were greater than 40 µM and 19.2 µM, respectively.
For the molecule `O=C(O)C(=O)c1ccc(OCc2ccc(COc3ccc(C(=O)C(=O)O)cc3)cc2)cc1`, in experiment [1], the Ratio IC50 came to 1.6.
As for `COC(=O)CC[C@@H](C)[C@H]1CC[C@H]2[C@@H]3CC=C4C(C)(C)c5nc(N)sc5C[C@]4(C)[C@H]3CC[C@]12C`, the Ratio IC50 in experiment [1] is greater than 4.4. Moreover, the figures for the IC50 in experiment [2] and in experiment [3] were greater than 40 µM and 9.04 µM, respectively.
The corresponding values for `Cc1ncc2c(n1)C(C)(C)C1=CC[C@H]3[C@@H]4CC[C@H]([C@H](C)CCC(=O)O)[C@@]4(C)CC[C@@H]3[C@@]1(C)C2` are 1.2, 11.5 µM and 9.11 µM.
Take `C[C@H](CCC(=O)O)[C@H]1CC[C@H]2[C@@H]3CC=C4C(C)(C)c5oncc5C[C@]4(C)[C@H]3CC[C@]12C`: the Ratio IC50 in experiment [1] was determined as 5.1. Also, the figures for the IC50 in experiment [2] and in experiment [3] were 46.6 µM and 9.13 µM, respectively.
As to `COC(=O)CC[C@@H](C)[C@H]1CC[C@H]2[C@@H]3CC=C4C(C)(C)C(=O)CC[C@]4(C)[C@H]3CC[C@]12C`, in experiment [1], the Ratio IC50 was greater than 3.8. The IC50 was greater than 50 µM in experiment [2] and 13.2 µM in experiment [3].
The matching figures for `C[C@H](CCC(=O)O)[C@H]1CC[C@H]2[C@@H]3CC=C4C(C)(C)c5nnsc5C[C@]4(C)[C@H]3CC[C@]12C`: 0.9, 36.6 µM and 39.4 µM.
Regarding `C[C@H](CCC(=O)O)[C@H]1CC[C@H]2[C@@H]3CC=C4C(C)(C)C(=O)CC[C@]4(C)[C@H]3CC[C@]12C`, the IC50 in experiment [2] was greater than 50 µM; in experiment [3], 13.2 µM.
For `C[C@H](CCC(=O)O)[C@H]1CC[C@H]2[C@@H]3CC=C4C(C)(C)c5ncncc5C[C@]4(C)[C@H]3CC[C@]12C`, the Ratio IC50 in experiment [1] came to 0.9. Moreover, the IC50 in experiment [2] amounted to 10.8 µM; in experiment [3], 11.6 µM.
For `CCOC(=O)CC[C@@H](C)[C@H]1CC[C@H]2[C@@H]3CC=C4C(C)(C)c5nc(N)ncc5C[C@]4(C)[C@H]3CC[C@]12C`, the IC50 in experiment [2] and in experiment [3] was greater than 40 µM each time.
On to `C[C@H](CCC(=O)O)[C@H]1CC[C@H]2[C@@H]3CC=C4C(C)(C)c5nc(N)sc5C[C@]4(C)[C@H]3CC[C@]12C`, for which the Ratio IC50 in experiment [1] was found to be 2. Also, the values for the IC50 in experiment [2] and in experiment [3] were 11 µM and 5.57 µM, respectively.
The corresponding values for `C[C@H](CCC(=O)O)[C@H]1CC[C@H]2[C@@H]3CC[C@@H]4C[C@H](O)CC[C@]4(C)[C@H]3CC[C@]12C` [LITHOCHOLIC ACID] are 1.6, 20.4 µM and 12.7 µM.
